In US12215140B2, “Method of stabilizing protein contained in specimen and solution for stabilizing protein contained in specimen” (EIKEN KAGAKU KABUSHIKI KAISHA, priority 2018, dated 2025):

Tested on: hemoglobin-haptoglobin complex
Assay: Stability of hemoglobin (as hemoglobin-haptoglobin complex) in samples preserved at 37° C. in preservation solution containing 1 unit/L haptoglobin, Hb measured by latex agglutination method (Examples 1 to 7)
Parameters: species or system human
Conditions: for Hb concentration / Recovery ratio with respect to Hb concentration after 0 days: 37° C.
Outline: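 Hemoglobin (~300 µg/L) in 0.5% fecal suspension, or without feces, held at 37 °C for 0–21 days in 40 mmol/L HEPES pH 6.8, 0.1% BSA, 0.1% NaN3, 1 unit/L haptoglobin, with 0–100 mmol/L phenylboronic acid ± sugars. Hb quantified by latex agglutination with anti-human Hb rabbit polyclonal; recovery (%) relative to day 0.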

[1] = Feces 1, sugar 50 mmol/L + phenylboronic acid 15 mmol/L, 0 days
[2] = Feces 1, sugar 50 mmol/L + phenylboronic acid 15 mmol/L, 7 days
[3] = Feces 1, sugar 50 mmol/L + phenylboronic acid 15 mmol/L, 14 days
[4] = Feces 1, sugar 50 mmol/L + phenylboronic acid 15 mmol/L, 21 days
[5] = Feces 1, sugar 100 mmol/L + phenylboronic acid 15 mmol/L, 0 days
[6] = Feces 1, sugar 100 mmol/L + phenylboronic acid 15 mmol/L, 7 days
[7] = Feces 1, sugar 100 mmol/L + phenylboronic acid 15 mmol/L, 14 days
[8] = Feces 1, sugar 100 mmol/L + phenylboronic acid 15 mmol/L, 21 days
[9] = Feces 1, sugar 100 mmol/L, no phenylboronic acid, 0 days
[10] = Feces 1, sugar 100 mmol/L, no phenylboronic acid, 7 days
[11] = Feces 1, sugar 100 mmol/L, no phenylboronic acid, 14 days
[12] = Feces 1, sugar 100 mmol/L, no phenylboronic acid, 21 days
[13] = Feces 2, sugar 50 mmol/L + phenylboronic acid 15 mmol/L, 0 days
[14] = Feces 2, sugar 50 mmol/L + phenylboronic acid 15 mmol/L, 7 days
[15] = Feces 2, sugar 50 mmol/L + phenylboronic acid 15 mmol/L, 14 days
[16] = Feces 2, sugar 50 mmol/L + phenylboronic acid 15 mmol/L, 21 days
[17] = Feces 2, sugar 100 mmol/L + phenylboronic acid 15 mmol/L, 0 days
[18] = Feces 2, sugar 100 mmol/L + phenylboronic acid 15 mmol/L, 7 days
[19] = Feces 2, sugar 100 mmol/L + phenylboronic acid 15 mmol/L, 14 days
[20] = Feces 2, sugar 100 mmol/L + phenylboronic acid 15 mmol/L, 21 days
[21] = Feces 2, sugar 100 mmol/L, no phenylboronic acid, 0 days
[22] = Feces 2, sugar 100 mmol/L, no phenylboronic acid, 7 days
[23] = Feces 2, sugar 100 mmol/L, no phenylboronic acid, 14 days
[24] = Feces 2, sugar 100 mmol/L, no phenylboronic acid, 21 days
[25] = Feces 3, sugar 50 mmol/L + phenylboronic acid 15 mmol/L, 0 days
[26] = Feces 3, sugar 50 mmol/L + phenylboronic acid 15 mmol/L, 7 days
[27] = Feces 3, sugar 50 mmol/L + phenylboronic acid 15 mmol/L, 14 days
[28] = Feces 3, sugar 50 mmol/L + phenylboronic acid 15 mmol/L, 21 days
[29] = Feces 3, sugar 100 mmol/L + phenylboronic acid 15 mmol/L, 0 days
[30] = Feces 3, sugar 100 mmol/L + phenylboronic acid 15 mmol/L, 7 days
[31] = Feces 3, sugar 100 mmol/L + phenylboronic acid 15 mmol/L, 14 days
[32] = Feces 3, sugar 100 mmol/L + phenylboronic acid 15 mmol/L, 21 days
[33] = Feces 3, sugar 100 mmol/L, no phenylboronic acid, 0 days
[34] = Feces 3, sugar 100 mmol/L, no phenylboronic acid, 7 days
[35] = Feces 3, sugar 100 mmol/L, no phenylboronic acid, 14 days
[36] = Feces 3, sugar 100 mmol/L, no phenylboronic acid, 21 days
[37] = No feces, sugar 50 mmol/L + phenylboronic acid 15 mmol/L, 0 days
[38] = No feces, sugar 50 mmol/L + phenylboronic acid 15 mmol/L, 7 days
[39] = No feces, sugar 50 mmol/L + phenylboronic acid 15 mmol/L, 14 days
[40] = No feces, sugar 50 mmol/L + phenylboronic acid 15 mmol/L, 21 days
[41] = No feces, sugar 100 mmol/L + phenylboronic acid 15 mmol/L, 0 days
[42] = No feces, sugar 100 mmol/L + phenylboronic acid 15 mmol/L, 7 days
[43] = No feces, sugar 100 mmol/L + phenylboronic acid 15 mmol/L, 14 days
[44] = No feces, sugar 100 mmol/L + phenylboronic acid 15 mmol/L, 21 days
[45] = No feces, sugar 100 mmol/L, no phenylboronic acid, 0 days
[46] = No feces, sugar 100 mmol/L, no phenylboronic acid, 7 days
[47] = No feces, sugar 100 mmol/L, no phenylboronic acid, 14 days
[48] = No feces, sugar 100 mmol/L, no phenylboronic acid, 21 days

`OC[C@H]1O[C@H](O[C@H]2O[C@H](CO)[C@@H](O)[C@H](O)[C@H]2O)[C@H](O)[C@@H](O)[C@@H]1O` [Trehalose, trehalose] was tested, and the Hb concentration [1] was 299 µg/L, the “Recovery ratio with respect to Hb concentration after 0 days” value (“Recovery ratio … after 0 days” for short) [1] was 100% and the Hb concentration [2] was 261 µg/L. For the same compound, the “Recovery ratio … after 0 days” value [2] was 87%, the Hb concentration [3] was 247 µg/L and the “Recovery ratio … after 0 days” value [3] was 83%. For the same compound, the Hb concentration [4] was 241 µg/L, the “Recovery ratio … after 0 days” value [4] was 81% and the Hb concentration [5] was 291 µg/L. For the same compound, the “Recovery ratio … after 0 days” value [5] was 100%, the Hb concentration [6] was 249 µg/L and the “Recovery ratio … after 0 days” value [6] was 86%. The Hb concentration [7] was 238 µg/L, the “Recovery ratio … after 0 days” value [7] was 82% and the Hb concentration [8] was 230 µg/L. The “Recovery ratio … after 0 days” value [8] was 79%, the Hb concentration [9] was 266 µg/L and the “Recovery ratio … after 0 days” value [9] was 100%. The Hb concentration [10] was 121 µg/L, the “Recovery ratio … after 0 days” value [10] was 45% and the Hb concentration [11] was 80 µg/L. For the same compound, the “Recovery ratio … after 0 days” value [11] was 30%, the Hb concentration [12] was 44 µg/L and the “Recovery ratio … after 0 days” value [12] was 17%. The Hb concentration [13] was 284 µg/L, the “Recovery ratio … after 0 days” value [13] was 100% and the Hb concentration [14] was 257 µg/L. The “Recovery ratio … after 0 days” value [14] was 90%, the Hb concentration [15] was 223 µg/L and the “Recovery ratio … after 0 days” value [15] was 79%. For the same compound, the Hb concentration [16] was 201 µg/L, the “Recovery ratio … after 0 days” value [16] was 71% and the Hb concentration [17] was 269 µg/L. The “Recovery ratio … after 0 days” value [17] was 100%, the Hb concentration [18] was 251 µg/L and the “Recovery ratio … after 0 days” value [18] was 93%. For the same compound, the Hb concentration [19] was 227 µg/L, the “Recovery ratio … after 0 days” value [19] was 84% and the Hb concentration [20] was 206 µg/L. The “Recovery ratio … after 0 days” value [20] was 77%, the Hb concentration [21] was 264 µg/L and the “Recovery ratio … after 0 days” value [21] was 100%. The Hb concentration [22] was 106 µg/L, the “Recovery ratio … after 0 days” value [22] was 40% and the Hb concentration [23] was 61 µg/L. For the same compound, the “Recovery ratio … after 0 days” value [23] was 23%, the Hb concentration [24] was 41 µg/L and the “Recovery ratio … after 0 days” value [24] was 16%. The Hb concentration [25] was 282 µg/L, the “Recovery ratio … after 0 days” value [25] was 100% and the Hb concentration [26] was 221 µg/L. The “Recovery ratio … after 0 days” value [26] was 78%, the Hb concentration [27] was 197 µg/L and the “Recovery ratio … after 0 days” value [27] was 70%. The Hb concentration [28] was 178 µg/L, the “Recovery ratio … after 0 days” value [28] was 63% and the Hb concentration [29] was 281 µg/L. For the same compound, the “Recovery ratio … after 0 days” value [29] was 100%, the Hb concentration [30] was 213 µg/L and the “Recovery ratio … after 0 days” value [30] was 76%. For the same compound, the Hb concentration [31] was 192 µg/L, the “Recovery ratio … after 0 days” value [31] was 68% and the Hb concentration [32] was 179 µg/L. For the same compound, the “Recovery ratio … after 0 days” value [32] was 64%, the Hb concentration [33] was 267 µg/L and the “Recovery ratio … after 0 days” value [33] was 100%. For the same compound, the Hb concentration [34] was 91 µg/L, the “Recovery ratio … after 0 days” value [34] was 34% and the Hb concentration [35] was 56 µg/L. For the same compound, the “Recovery ratio … after 0 days” value [35] was 21%, the Hb concentration [36] was 47 µg/L and the “Recovery ratio … after 0 days” value [36] was 18%. For the same compound, the Hb concentration [37] was 268 µg/L, the “Recovery ratio … after 0 days” value [37] was 100% and the Hb concentration [38] was 253 µg/L. The “Recovery ratio … after 0 days” value [38] was 94%, the Hb concentration [39] was 255 µg/L and the “Recovery ratio … after 0 days” value [39] was 95%. For the same compound, the Hb concentration [40] was 257 µg/L, the “Recovery ratio … after 0 days” value [40] was 96% and the Hb concentration [41] was 269 µg/L. The “Recovery ratio … after 0 days” value [41] was 100%, the Hb concentration [42] was 248 µg/L and the “Recovery ratio … after 0 days” value [42] was 92%. For the same compound, the Hb concentration [43] was 251 µg/L, the “Recovery ratio … after 0 days” value [43] was 93% and the Hb concentration [44] was 251 µg/L. The “Recovery ratio … after 0 days” value [44] was 93%, the Hb concentration [45] was 243 µg/L and the “Recovery ratio … after 0 days” value [45] was 100%. For the same compound, the Hb concentration [46] was 229 µg/L, the “Recovery ratio … after 0 days” value [46] was 94% and the Hb concentration [47] was 225 µg/L. The “Recovery ratio … after 0 days” value [47] was 93%, the Hb concentration [48] was 222 µg/L and the “Recovery ratio … after 0 days” value [48] was 91%. For the same compound, the “recovery ratio of hemoglobin in the samples containing fecal specimens” value (sugar 100 mmol/L, preservation solutions containing no phenylboronic acid) was “does not improve” and the recovery ratios (sugar further added to phenylboronic acid 15 mmol/L, Feces 3) was “not improved”.
